Twelve compounds from DBAASP can be followed below.

The MIC is the smallest concentration in the dilution series that meets the test's criterion for growth inhibition.

In brackets after ≈: the same amount, converted by molar mass.

Holding throughout (experiment): ≥ marks a high value that may be exact or a test limit, other limits are often not marked, values filed in µg/mL are converted to µM
The test system of experiment [1] is Escherichia coli ATCC 25922.
Experiment [2] deals with Staphylococcus aureus ATCC 29213.
Experiment [3] has as its system Pseudomonas aeruginosa ATCC 27853.
Experiment [4] has as its system Staphylococcus epidermidis ATCC 12228.
A further experiment has as its system Pseudomonas aeruginosa.

Consider `CC[C@H](C)[C@H](NC(=O)[C@H](CCCN=C(N)N)NC(=O)[C@H](CCC(N)=O)NC(=O)[C@H](CCC(N)=O)NC(=O)[C@@H](NC(=O)[C@H](CCCN=C(N)N)NC(=O)[C@H](CCCCN)NC(=O)[C@@H](N)Cc1ccccc1)[C@@H](C)CC)C(=O)N[C@@H](CCCCN)C(=O)N[C@@H](CC(=O)O)C(=O)N[C@@H](Cc1ccccc1)C(=O)N[C@@H](CC(C)C)C(=O)N[C@@H](CCCN=C(N)N)C(=O)O` [FKRIQQRIKDFLR], for which the MIC in experiment [1] is 5 µM (≈ 8.74 µg/mL); in experiment [2], > 40 µM.

On to `CC[C@H](C)[C@H](NC(=O)[C@H](CCSC)NC(=O)[C@H](C)NC(=O)[C@@H]1CCCN1C(=O)[C@@H](NC(=O)[C@@H](NC(=O)[C@H](CCCCN)NC(=O)[C@@H](NC(=O)[C@H](CC(C)C)NC(=O)CNC(=O)CNC(=O)[C@H](CC(C)C)NC(=O)[C@@H](N)Cc1ccccc1)[C@@H](C)CC)[C@@H](C)CC)C(C)C)C(=O)N[C@@H](CS)C(=O)N[C@@H](C)C(=O)N[C@H](C(=O)N[C@H](C(=O)N[C@@H](CCCCN)C(=O)N[C@@H](CCCCN)C(=O)O)[C@@H](C)O)C(C)C` [FLGGLIKIVPAMICAVTKK], for which the MIC in experiment [1] was 128 µM (≈ 256 µg/mL); in experiment [3], 63.9 µM (≈ 128 µg/mL); in experiment [2], 63.9 µM (≈ 128 µg/mL).

As for `CC[C@H](C)[C@H](NC(=O)CN)C(=O)N[C@@H](CCCCN)C(=O)N[C@@H](CCCCN)C(=O)N[C@@H](Cc1c[nH]c2ccccc12)C(=O)N[C@@H](CC(C)C)C(=O)N[C@@H](Cc1cnc[nH]1)C(=O)N[C@@H](CO)C(=O)N1CCC[C@H]1C(=O)N[C@@H](CCCCN)C(=O)N[C@@H](CCCCN)C(=O)N[C@@H](Cc1ccccc1)C(=O)NCC(=O)N[C@@H](CCCCN)C(=O)N[C@@H](CCCCN)C(=O)N[C@@H](Cc1ccccc1)C(=O)N1CCC[C@H]1C(=O)N[C@@H](CCCCN)C(=O)N[C@@H](CCCCN)C(=O)N[C@H](C(=O)N[C@@H](CCSC)C(=O)N[C@@H](CC(N)=O)C(=O)N[C@@H](CO)C(N)=O)[C@@H](C)CC` [GIKKWLHSPKKFGKKFPKKIMNS], the values for the MIC in experiment [1] and in experiment [4] were > 80 µM and 10 µM (≈ 27.3 µg/mL), respectively.

As for `CC[C@H](C)[C@H](NC(=O)CN)C(=O)N[C@@H](CCCCN)C(=O)N[C@@H](CCCCN)C(=O)N[C@@H](Cc1c[nH]c2ccccc12)C(=O)N1CCC[C@H]1C(=O)N[C@@H](Cc1cnc[nH]1)C(=O)N[C@@H](CCCCN)C(=O)N1CCC[C@H]1C(=O)N[C@@H](CCCCN)C(=O)N[C@@H](CCCCN)C(=O)N[C@@H](Cc1ccccc1)C(=O)NCC(=O)N[C@@H](CCCCN)C(=O)N[C@@H](CCCCN)C(=O)N[C@@H](Cc1ccccc1)C(=O)N[C@H](C(=O)N[C@@H](CCCCN)C(=O)N[C@@H](CCCCN)C(=O)N[C@H](C(=O)N[C@@H](CCCCN)C(=O)N[C@@H](CC(N)=O)C(=O)N[C@@H](CO)C(N)=O)[C@@H](C)CC)C(C)C` [GIKKWPHKPKKFGKKFVKKIKNS], the MIC in experiment [1] was 40 µM (≈ 110 µg/mL); in experiment [4] it was 10 µM (≈ 27.5 µg/mL).

Turning to `CC[C@H](C)[C@H](NC(=O)CN)C(=O)N[C@@H](CCCCN)C(=O)N[C@@H](CCCCN)C(=O)N[C@@H](Cc1c[nH]c2ccccc12)C(=O)N1CCC[C@H]1C(=O)N[C@@H](Cc1cnc[nH]1)C(=O)N[C@@H](CO)C(=O)N1CCC[C@H]1C(=O)N[C@@H](CCCCN)C(=O)N[C@@H](CCCCN)C(=O)N[C@@H](Cc1ccccc1)C(=O)NCC(=O)N[C@@H](CCCCN)C(=O)N[C@@H](CCCCN)C(=O)N[C@@H](Cc1ccccc1)C(=O)N[C@H](C(=O)N[C@@H](CCCCN)C(=O)N[C@@H](CCCCN)C(=O)N[C@H](C(=O)N[C@@H](CCSC)C(=O)N[C@@H](CC(N)=O)C(=O)N[C@@H](CO)C(N)=O)[C@@H](C)CC)C(C)C` [GIKKWPHSPKKFGKKFVKKIMNS], the MIC in experiment [1] and in experiment [4] was 10 µM (≈ 27.1 µg/mL) in each case.

As for `CC(=O)N[C@@H](CCCCN)C(=O)N[C@@H](CC(C)C)C(=O)N[C@@H](CC(C)C)C(=O)N[C@@H](CCCCN)C(=O)N[C@@H](CC(C)C)C(=O)N[C@@H](CC(C)C)C(=O)N[C@@H](CCCCN)C(=O)N[C@@H](CCCCN)C(=O)N[C@@H](CC(C)C)C(=O)N[C@@H](CC(C)C)C(=O)N[C@@H](CCCCN)C(=O)N[C@@H](CC(C)C)C(=O)N1CCC[C@H]1C(=O)N[C@@H](CCCCN)C(N)=O` [KLLKLLKKLLKLPK], the MIC in experiment [1] stood at 14.1 µM (≈ 24.3 µg/mL); in experiment [2], 10 µM (≈ 17.2 µg/mL).

Consider `CC[C@H](C)[C@H](NC(=O)[C@H](Cc1ccccc1)NC(=O)[C@H](CO)NC(=O)[C@H](CC(N)=O)NC(=O)[C@H](Cc1c[nH]c2ccccc12)NC(=O)[C@@H](N)CCCCN)C(=O)N[C@@H](CCCCN)C(=O)N[C@@H](CCCCN)C(=O)N[C@@H](CC(C)C)C(=O)N[C@H](C(=O)N[C@@H](CO)C(=O)N[C@@H](CCCCN)C(=O)N[C@@H](Cc1ccccc1)C(=O)N[C@@H](CC(C)C)C(=O)N[C@@H](Cc1cnc[nH]1)C(=O)N[C@@H](CO)C(=O)N[C@@H](C)C(=O)N[C@@H](CCCCN)C(=O)N[C@@H](CCCCN)C(=O)N[C@@H](Cc1ccccc1)C(N)=O)[C@@H](C)O` [KWNSFIKKLTSKFLHSAKKF], for which the MIC in the experiment with Pseudomonas aeruginosa was 5.13 µM (≈ 12.5 µg/mL). This counts as single-digit micromolar.

With `CC(C)C[C@H](NC(=O)[C@H](CC(C)C)NC(=O)[C@H](CCCCN)NC(=O)[C@H](CCCCN)NC(=O)[C@H](CC(C)C)NC(=O)[C@H](CC(C)C)NC(=O)[C@H](CCCCN)NC(=O)[C@H](CC(C)C)NC(=O)[C@H](CC(C)C)NC(=O)[C@H](CCCCN)NC(=O)[C@H](CCCCN)NC(=O)[C@@H](N)CC(C)C)C(=O)N[C@@H](CCCCN)C(=O)N[C@@H](C)C(=O)N[C@@H](C)C(=O)NCC(=O)O` [LKKLLKLLKKLLKAAG], the MIC in experiment [1] and in experiment [2] was 10 µM (≈ 17.8 µg/mL) in each case.

As for `CC[C@H](C)[C@H](NC(=O)[C@H](C)NC(=O)[C@H](CCCCN)NC(=O)[C@@H](N)CCC(N)=O)C(=O)N[C@@H](CCCN=C(N)N)C(=O)N[C@H](C(=O)N[C@@H](CCCN=C(N)N)C(=O)N[C@@H](CC(C)C)C(=O)N[C@@H](CO)C(=O)N[C@@H](C)C(=O)O)C(C)C` [QKAIRVRLSA], the MIC in experiment [1] was 7.01 µM (≈ 8 µg/mL); in experiment [3], 7.01 µM (≈ 8 µg/mL); in experiment [2], > 56.1 µM.

With `CC(C)[C@H](NC(=O)[C@H](Cc1c[nH]c2ccccc12)NC(=O)[C@H](Cc1c[nH]c2ccccc12)NC(=O)[C@@H](N)CCCN=C(N)N)C(=O)N[C@@H](C)C(=O)N[C@@H](Cc1c[nH]c2ccccc12)C(=O)N[C@@H](CCCN=C(N)N)C(=O)N[C@@H](CC(N)=O)C(=O)N[C@@H](CCCN=C(N)N)C(=O)O` [RWWVAWRNR], the MIC turned out to be 47 µM (≈ 62.5 µg/mL) in experiment [1] and 94 µM (≈ 125 µg/mL) in experiment [2].

In the case of `CC[C@H](C)[C@H](NC(=O)[C@@H](NC(=O)[C@H](C)NC(=O)[C@H](CCCN=C(N)N)NC(=O)[C@H](CC(N)=O)NC(=O)[C@H](Cc1ccccc1)NC(=O)[C@H](CO)NC(=O)[C@@H](N)C(C)C)C(C)C)C(=O)N[C@@H](Cc1cnc[nH]1)C(=O)N[C@@H](CO)C(=O)N[C@@H](CC(C)C)C(=O)N[C@@H](CC(C)C)C(=O)NCC(N)=O` [VSFNRAVIHSLLG], the MIC in experiment [1] and in experiment [2] was > 496 µM each time.

As to `CC[C@H](C)[C@H](NC(=O)CNC(=O)[C@H](CC(C)C)NC(=O)[C@@H](NC(=O)[C@@H](N)Cc1ccc(O)cc1)[C@@H](C)O)C(=O)N[C@@H](CCCCN)C(=O)N[C@H](C(=O)N[C@@H](CC(C)C)C(=O)N[C@@H](Cc1c[nH]c2ccccc12)C(=O)N[C@@H](CO)C(=O)N[C@@H](C)C(=O)N[C@@H](Cc1ccc(O)cc1)C(=O)N[C@@H](CCCCN)C(=O)N[C@@H](Cc1cnc[nH]1)C(=O)O)[C@@H](C)CC` [YTLGIKILWSAYKH], the MIC in experiment [4] is 50 µM (≈ 84.7 µg/mL).
